pIC50: −log10 of the molar value. Where “and” joins values, the source holds several entries; their conditions need not be identical. Equal entries are not always repeated. Each block holds one molecule with its values, some of them ahead of it.
How the values were obtained:
COX-2 = biological target: T1, COX-2 (Homo sapiens, UniProt P35354); assay: In vitro cyclooxygenase inhibition assay (colorimetric COX inhibitor screening kit, PGE2 synthesis), COX-2; type: biochemical; details: for pIC50: duplicate determinations, 0.01 to 550 μM; for COX-2/COX-1 selectivity ratio: ratio of IC50 values (μM)
T1 construct: purchased Cayman Chemical Company 560131
T1 sequence (P35354 18-604): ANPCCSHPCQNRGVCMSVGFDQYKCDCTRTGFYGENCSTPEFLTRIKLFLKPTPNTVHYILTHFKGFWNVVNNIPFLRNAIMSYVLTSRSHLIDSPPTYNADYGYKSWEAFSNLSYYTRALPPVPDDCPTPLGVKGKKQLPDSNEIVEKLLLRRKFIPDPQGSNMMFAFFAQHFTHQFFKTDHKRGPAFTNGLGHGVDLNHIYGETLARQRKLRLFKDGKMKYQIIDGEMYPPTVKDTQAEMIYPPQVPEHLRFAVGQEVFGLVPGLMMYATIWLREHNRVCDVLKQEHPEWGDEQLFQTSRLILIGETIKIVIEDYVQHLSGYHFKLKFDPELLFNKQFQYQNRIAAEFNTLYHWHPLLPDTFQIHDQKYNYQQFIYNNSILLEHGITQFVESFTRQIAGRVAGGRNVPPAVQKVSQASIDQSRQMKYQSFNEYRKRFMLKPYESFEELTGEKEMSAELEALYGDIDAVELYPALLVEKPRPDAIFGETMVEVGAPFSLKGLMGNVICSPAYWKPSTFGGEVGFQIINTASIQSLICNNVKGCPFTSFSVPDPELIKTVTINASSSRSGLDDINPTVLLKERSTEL

COX-1 = biological target: T2, COX-1 (Ovis aries, UniProt P05979); assay: In vitro cyclooxygenase inhibition assay (colorimetric COX inhibitor screening kit, PGE2 synthesis), COX-1; type: biochemical; details: duplicate determinations; 0.01 to 550 μM
T2 construct: purchased Cayman Chemical Company 560131
T2 sequence (P05979 25-600): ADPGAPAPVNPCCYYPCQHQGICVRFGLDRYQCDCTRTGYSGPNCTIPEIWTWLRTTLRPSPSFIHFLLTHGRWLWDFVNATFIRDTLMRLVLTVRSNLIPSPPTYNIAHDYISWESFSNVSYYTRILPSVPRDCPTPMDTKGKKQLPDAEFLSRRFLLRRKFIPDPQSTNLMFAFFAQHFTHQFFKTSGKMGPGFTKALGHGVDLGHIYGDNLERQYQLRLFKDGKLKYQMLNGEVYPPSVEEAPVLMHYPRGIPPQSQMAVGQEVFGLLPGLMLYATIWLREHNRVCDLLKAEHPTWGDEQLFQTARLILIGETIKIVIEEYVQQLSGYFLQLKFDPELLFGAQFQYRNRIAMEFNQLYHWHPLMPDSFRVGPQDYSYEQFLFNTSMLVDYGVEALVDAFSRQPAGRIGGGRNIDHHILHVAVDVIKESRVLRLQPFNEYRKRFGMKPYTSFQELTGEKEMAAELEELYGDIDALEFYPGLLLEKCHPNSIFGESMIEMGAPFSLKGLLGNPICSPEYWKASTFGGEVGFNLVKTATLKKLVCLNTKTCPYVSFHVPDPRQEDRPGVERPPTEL

hyperuricemia rats = assay: Hyperuricemia rat model (adenine/dry yeast), uric acid in serum and urine; type: in vivo, Sprague-Dawley (SD) rats; details: oral, 5 days, Wosi 0.5, 1, 2 g/kg, vs model group
Experimental: The rats were divided into six groups, and each group comprised of 10 animals which were control, model, Benzbromarone (0.01 mg/kg), Wosi (0.5, 1, and 2 g/kg) groups. Briefly, 10% dry yeast solution of 1.25% adenine (10 ml/kg) was given orally administration for 15 consecutive days to induce the hyperuricemia in each animal except those of control groups. The solution of 0.5% CMC-Na was given to the control groups. On the 10th day, the Wosi and Benzbromarone were orally administered continuously 24 h 5 days. Normal saline was given to the control and model groups. Collecting 14th and 15th days of rat urine (24 h) and recording the volume. It was centrifuged at 3,500 g for 5 min to remove the precipitations. On the 15th day, rats were first anesthetized with pentobarbital sodium (i.p., 70 mg/kg body weight), 1 h after the final drug treatment. Then the blood sample was collected and centrifuged at 3000 g for 5 min to obtain the serum. Serum were kept under −20°C.
According to manufacturer’s instructions, using a standard diagnostic kit, was used in order to evaluate the concentration of uric acid concentration in serum and urine.

[1] = system: serum cytokines IL-6, IL-1β, IL-2, IL-10, IFN-γ; assay: Serum inflammatory cytokines (ELISA) in MSU-induced rats; type: in vivo, Sprague-Dawley (SD) rats; details: oral 7 days, Wosi 0.5, 1, 2 g/kg, colchicine 0.2 mg/kg
Experimental: (§1) Rats were divided as aforementioned. Wosi at three doses (0.5, 1, and 2 g/kg) were orally administration once daily for 7 days in Wosi groups. Meanwhile, colchicine was orally administration once daily for 7 days in colchicine groups. The injection of the MSU crystal was performed on the fifth day for each animal except those of control groups. 0.9% sterile saline was given to the control group. On the seventh day, rats were first anesthetized with pentobarbital sodium (i.p., 70 mg/kg body weight) at 30 min after the last dosing, Blood samples were taken from rat femoral artery with heparinized needles which were allowed to clot for 1 h at room temperature and centrifuged at 3,000 g for 10 min to obtain serum. Serum samples were stored at −20°C until the ELISA testing, then rats were sacrificed by femoral artery exsanguination. Meanwhile, the ankle joint surrounding tissues were collected for the immunohistochemical analyze and frozen at −80°C.
The levels of interleukin 6 (IL-6), interleukin 1 beta, interleukin 2 (IL-2), interleukin 10 (IL-10), and interferon gamma (IFN-γ) in the serum were measured using ELISA kits according to manufacturer’s instructions.

[2] = system: COX-2 and VCAM-1 protein expression; assay: Immunohistochemistry of COX-2 and VCAM-1 protein in ankle joint synovial tissue of MSU-induced rats; type: in vivo, Sprague-Dawley (SD) rats; details: 7 days, colchicine 0.2 mg/kg
Experimental: as §1
The method of immunohistochemical staining for the ankle joint was as following the previous studies. Briefly, the sections were deparaffinized and […] by xylene and ethanol. […] Finally, the sections were washed with TBS three times, and antibody binding was detected using 3,3′-diaminobenzidine tetrahydrochloride (DAB). […] Stained sections were dehydrated and then each section was analyzed by microscope and image output system.

cyclooxygenase-2 = system: cyclooxygenase-2; parameters: method as in Ringbom et al., 1998; details: ref Ringbom et al., 1998; cited from earlier work

pIC50 (COX-2): 3.53
COX-2/COX-1 selectivity ratio (COX-2): 0.67
pIC50 (COX-1): 3.35
Structure (SMILES): C[C@@H]1O[C@@H](O[C@@H]2[C@@H](O)[C@H](O[C@H]3CC[C@]4(C)[C@H]5CC=C6[C@@H]7CC(C)(C)CC[C@]7(C(=O)O)CC[C@@]6(C)[C@]5(C)CC[C@H]4C3(C)C)O[C@H](C(=O)O)[C@H]2O)[C@H](O)[C@H](O)[C@H]1O [Compound a, 3-O-[α-L-pyranrhamnose(1-3)-β-D-pyranglucuronic acid]-oleanolic acid]

pIC50 (COX-2): 3.53
COX-2/COX-1 selectivity ratio (COX-2): 0.60
pIC50 (COX-1): 3.31
Structure (SMILES): CC1(C)CC[C@]2(C(=O)O[C@@H]3O[C@H](CO)[C@@H](O)[C@H](O)[C@H]3O)CC[C@]3(C)C(=CC[C@@H]4[C@@]5(C)CC[C@H](O[C@@H]6O[C@H](C(=O)O)[C@@H](O)[C@H](O)[C@H]6O)C(C)(C)[C@@H]5CC[C@]43C)[C@@H]2C1 [Compound b, 3-O-(β-D-pyranglucuronic acid)-oleanolic acid-28-O-β-D-pyran glucoside]

pIC50 (COX-2): 3.42 and 3.46
COX-2/COX-1 selectivity ratio (COX-2): 0.65 and 0.64
pIC50 (COX-1): 3.27
Structure (SMILES): C[C@@H]1O[C@@H](O[C@@H]2[C@@H](O)[C@H](O[C@H]3CC[C@]4(C)[C@H]5CC=C6[C@@H]7CC(C)(C)CC[C@]7(C(=O)O[C@@H]7O[C@H](CO)[C@@H](O)[C@H](O)[C@H]7O)CC[C@@]6(C)[C@]5(C)CC[C@H]4C3(C)C)O[C@H](C(=O)O)[C@H]2O)[C@H](O)[C@H](O)[C@H]1O [Compound c, 3-O-[α-L-pyranrhamnose(1-3)-β-D-pyranglucuronic acid]-oleanolic acid-28-O-β-D-pyran glucoside]

Structure (SMILES): CCc1oc2ccccc2c1C(=O)c1cc(Br)c(O)c(Br)c1 [benzbromarone, Benzbromarone]
serum level of uric acid (hyperuricemia rats): recovered to that of the normal animals
urine uric acid excretion (24 h) (hyperuricemia rats): recovered to that of the normal animals

Structure (SMILES): COc1cc2c(c(OC)c1OC)-c1ccc(OC)c(=O)cc1[C@@H](NC(C)=O)CC2 [colchicine, Colchicine]
serum level of IFN-γ [1]: inhibited IL-2, IL-1β, IL-6, and IFN-γ secretion
serum level of IL-1β [1]: inhibited IL-2, IL-1β, IL-6, and IFN-γ secretion
serum level of IL-2 [1]: inhibited IL-2, IL-1β, IL-6, and IFN-γ secretion
serum level of IL-6 [1]: inhibited IL-2, IL-1β, IL-6, and IFN-γ secretion
serum level of IL-10 [1]: increased IL-10 secretion
protein expression of VCAM-1 in synovial tissue (IHC, IOD) ([2]; Wosi 0.5, 1, 2 g/kg): recovered to that of the normal animals
protein expression of COX-2 in synovial tissue (IHC, IOD) ([2]; Wosi particularly at 0.5 and 2 g/kg/day): recovered to that of the normal animals

Structure (SMILES): CC1(C)CC[C@]2(C(=O)O)CC[C@]3(C)C(=CC[C@@H]4[C@@]5(C)CC[C@H](O)C(C)(C)[C@@H]5CC[C@]43C)[C@@H]2C1 [oleanolic acid]
selectivity of inhibition of cyclooxygenase-2 catalyzed prostaglandin biosynthesis (cyclooxygenase-2): selective inhibitors of cyclooxygenase-2 catalyzed prostaglandin biosynthesis

Structure (SMILES): C[C@H]1[C@H](C)CC[C@]2(C(=O)O)CC[C@]3(C)C(=CC[C@@H]4[C@@]5(C)CC[C@H](O)C(C)(C)[C@@H]5CC[C@]43C)[C@H]12 [ursolic acid]
selectivity of inhibition of cyclooxygenase-2 catalyzed prostaglandin biosynthesis (cyclooxygenase-2): selective inhibitors of cyclooxygenase-2 catalyzed prostaglandin biosynthesis

Source: article PMC7797783, “Identification of Active Compounds From Yi Nationality Herbal Formula Wosi Influencing COX-2 and VCAM-1 Signaling” (Frontiers in Pharmacology, 2020)
